Here are results for 14 compounds from patent publication US20230374025A1, “FGFR INHIBITOR COMPOUND AND USE THEREOF” (SHENZHEN KANGSU PHARMACEUTICAL TECHNOLOGY CO., LTD., priority 2021, published 2023).

Holding throughout (assay type): biochemical
For assay [1], the target named is T1, VEGFR2 (Homo sapiens, UniProt P35968).
T1 construct: purchased Carna 08-191
Description: Assay I: VEGFR2 kinase inhibition (HTRF KinEASE-TK). The conditions noted are these: ATP 5 μM, substrate TK 1 μM. How it is done:
(§1) Assay I: Determination of Inhibitory Activity Against FGFR Mutants
(§2) 1. Reagents and Equipment
(§3) 2.1 Preparation of 1× Kinase Reaction Buffer:
(§4) 1× Kinase reaction buffer was formulated with 1× volume of 5× kinase reaction buffer and 4× volume of water; 5 mM MgCl2; and 1 mM DTT.
(§5) 2.3 Screening of Compounds:
(§6) 1. Diluting a compound 4-fold in a dilution plate with DMSO, with a starting compound concentration of 2 mM.
(§7) 2. Diluting the compound 40-fold into 1× kinase reaction buffer and shaking it on a shaker for 20 minutes.
3. Formulating 2×FGFR1 V561M/FGFR2 V564F/FGFR3 K650E/VEGFR2 with 1× of enzyme reaction buffer.
4. Adding 2 μl FGFR1 V561M/FGFR2 V564F/FGFR3 K650E/VEGFR2 kinase (formulated in step 3) to each well of the reaction plate.
(§8) 5. Adding 1 μl of the compound diluted in buffer to each well, sealing the plate with a sealing membrane and centrifuging the plate at 1000 g for 30 seconds and leaving it at room temperature for 10 minutes.
(§9) 6. Formulating 2.5×TK-substrate-biotin and ATP mixture with 1× enzyme reaction buffer and adding 2 μl of K-substrate-biotin/ATP mixture to the reaction plate.
(§10) 7. Sealing the plate with a sealing membrane and centrifuging the plate at 1000 g for 30 seconds and allowing it to react at room temperature for 50 minutes.
(§11) 8. Formulating 4× Sa-XL 665 (250 nM) with HTRF assay buffer.
(§12) 9. Adding 5 μl Sa-XL 665 and 5 μl TK-Antibody-Cryptate to each well, centrifuging it at 1000 g for 30 seconds, and allowing it to react for 1 hour at room temperature.
(§13) 10. Reading fluorescence signals at 615 nm (Cryptate) and 665 nm (XL665) with Biotek.
(§14) 3.1 Calculation of the ratio for each well: the ratio was calculated as 665/615 nm.
(§15) 3.3 Calculation of IC50 and plotting of inhibition curves for the compounds.
(§16) The IC50 (half inhibition concentration) of a compound was obtained using the following non-linear fitting equation, wherein data analysis was performed using Graphpad 6.0 software.
(§17) Y=Bottom+(Top−Bottom)/(1+10^((Log IC50−X)*Hill Slope)) • X: log value of compound concentration; and Y: inhibition rate (% inh)
(§18) 3.4 Validation of Results
(§19) Data were exported from Envision and analyzed manually. The ratios were converted to inhibition rates and IC50 was calculated by Prism GraphPad 6.0 from the inhibition rates. IC50 was calculated again by the ratios to verify accuracy of the results.
Positive control IC50 was within 3 times of the average value

The target in assay [2] is T2, FGFR1 V561M (Homo sapiens, UniProt P11362, V561M).
T2 construct: purchased Signalchem F04-13G
Description: Assay I: inhibitory activity against FGFR mutants (HTRF KinEASE-TK). The note with it: ATP 5 μM, substrate TK 1 μM. How it is done: as §1, §2, §3, §4, §5, §6, §7, §8, §9, §10, §11, §12, §13, §14, §15, §16, §17, §18, §19
In general terms: TR-FRET usually uses a lanthanide donor and a delayed reading to cut background.

Assay [3] concerns the target T3, FGFR3 V555M (Homo sapiens, UniProt P22607, V555M).
T3 construct: purchased Signalchem F06-12GG
Described as above. The conditions noted are these: ATP 20 μM, substrate TK 1 μM. How it is done: as §1, §2, §3, §4, §5, §6, §7, §8, §9, §10, §11, §12, §13, §14, §15, §16, §17, §18, §19

In assay [4] the target is T4, FGFR2 V564F (Homo sapiens, UniProt P21802, V564F).
T4 construct: purchased Signalchem F05-12FG
The description is as above. The note with it: ATP 10 μM, substrate TK 1 μM. How it is done: as §1, §2, §3, §4, §5, §6, §7, §8, §9, §10, §11, §12, §13, §14, §15, §16, §17, §18, §19

T3 sequence (P22607 397-806 V555M limits assumed): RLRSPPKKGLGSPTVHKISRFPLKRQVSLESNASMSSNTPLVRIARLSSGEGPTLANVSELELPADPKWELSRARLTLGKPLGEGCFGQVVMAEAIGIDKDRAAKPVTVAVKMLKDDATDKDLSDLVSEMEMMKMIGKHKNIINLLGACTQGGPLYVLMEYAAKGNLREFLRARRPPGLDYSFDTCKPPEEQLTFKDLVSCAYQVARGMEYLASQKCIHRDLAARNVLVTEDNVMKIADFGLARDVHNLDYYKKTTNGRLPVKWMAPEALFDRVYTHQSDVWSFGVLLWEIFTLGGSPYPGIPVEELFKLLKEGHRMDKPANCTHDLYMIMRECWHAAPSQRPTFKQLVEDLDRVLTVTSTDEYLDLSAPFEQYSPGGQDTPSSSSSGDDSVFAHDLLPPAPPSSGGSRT
T4 sequence (P21802 22-821 V564F): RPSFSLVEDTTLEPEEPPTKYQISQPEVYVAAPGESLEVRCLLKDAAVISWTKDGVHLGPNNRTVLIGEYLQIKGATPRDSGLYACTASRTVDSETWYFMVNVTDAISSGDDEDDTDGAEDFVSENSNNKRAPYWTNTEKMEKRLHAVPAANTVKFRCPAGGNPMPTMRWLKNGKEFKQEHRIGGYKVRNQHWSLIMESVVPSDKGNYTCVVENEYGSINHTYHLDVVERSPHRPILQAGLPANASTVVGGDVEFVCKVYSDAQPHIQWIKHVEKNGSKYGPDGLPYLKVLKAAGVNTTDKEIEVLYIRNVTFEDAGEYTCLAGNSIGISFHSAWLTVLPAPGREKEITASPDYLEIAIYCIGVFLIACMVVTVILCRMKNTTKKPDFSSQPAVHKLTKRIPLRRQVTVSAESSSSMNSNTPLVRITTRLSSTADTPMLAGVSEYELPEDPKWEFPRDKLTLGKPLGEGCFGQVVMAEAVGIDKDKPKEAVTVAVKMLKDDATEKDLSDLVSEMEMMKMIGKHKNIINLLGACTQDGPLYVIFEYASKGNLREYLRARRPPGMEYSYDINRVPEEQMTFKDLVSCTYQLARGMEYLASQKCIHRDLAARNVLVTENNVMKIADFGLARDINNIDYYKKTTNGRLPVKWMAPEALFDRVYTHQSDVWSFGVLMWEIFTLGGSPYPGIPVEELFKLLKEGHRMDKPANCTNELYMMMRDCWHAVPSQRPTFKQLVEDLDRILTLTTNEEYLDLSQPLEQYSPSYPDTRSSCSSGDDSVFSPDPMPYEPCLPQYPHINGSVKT
T2 sequence (P11362 22-822 V561M): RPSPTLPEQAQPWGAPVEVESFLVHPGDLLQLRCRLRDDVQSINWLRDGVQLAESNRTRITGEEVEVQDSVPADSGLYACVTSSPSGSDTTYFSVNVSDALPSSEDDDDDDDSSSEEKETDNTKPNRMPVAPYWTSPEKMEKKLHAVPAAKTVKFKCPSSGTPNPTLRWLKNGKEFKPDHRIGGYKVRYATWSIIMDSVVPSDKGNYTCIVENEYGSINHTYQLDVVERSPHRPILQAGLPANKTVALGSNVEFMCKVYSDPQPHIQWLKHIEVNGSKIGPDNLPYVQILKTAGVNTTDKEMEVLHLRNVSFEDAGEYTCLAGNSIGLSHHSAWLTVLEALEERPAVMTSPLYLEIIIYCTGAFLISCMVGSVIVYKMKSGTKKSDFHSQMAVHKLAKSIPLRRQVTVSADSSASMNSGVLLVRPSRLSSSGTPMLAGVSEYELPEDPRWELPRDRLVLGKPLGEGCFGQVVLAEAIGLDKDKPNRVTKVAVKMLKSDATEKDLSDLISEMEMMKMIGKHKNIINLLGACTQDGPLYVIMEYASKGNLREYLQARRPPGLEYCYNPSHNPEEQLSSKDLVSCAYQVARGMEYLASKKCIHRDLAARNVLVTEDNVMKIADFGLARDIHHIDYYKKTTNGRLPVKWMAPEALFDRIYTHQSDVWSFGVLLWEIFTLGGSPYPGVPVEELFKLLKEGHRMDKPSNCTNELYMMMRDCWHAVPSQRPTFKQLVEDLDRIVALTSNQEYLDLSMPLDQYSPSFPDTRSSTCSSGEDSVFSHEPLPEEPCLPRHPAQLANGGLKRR
T1 sequence (P35968 20-1356): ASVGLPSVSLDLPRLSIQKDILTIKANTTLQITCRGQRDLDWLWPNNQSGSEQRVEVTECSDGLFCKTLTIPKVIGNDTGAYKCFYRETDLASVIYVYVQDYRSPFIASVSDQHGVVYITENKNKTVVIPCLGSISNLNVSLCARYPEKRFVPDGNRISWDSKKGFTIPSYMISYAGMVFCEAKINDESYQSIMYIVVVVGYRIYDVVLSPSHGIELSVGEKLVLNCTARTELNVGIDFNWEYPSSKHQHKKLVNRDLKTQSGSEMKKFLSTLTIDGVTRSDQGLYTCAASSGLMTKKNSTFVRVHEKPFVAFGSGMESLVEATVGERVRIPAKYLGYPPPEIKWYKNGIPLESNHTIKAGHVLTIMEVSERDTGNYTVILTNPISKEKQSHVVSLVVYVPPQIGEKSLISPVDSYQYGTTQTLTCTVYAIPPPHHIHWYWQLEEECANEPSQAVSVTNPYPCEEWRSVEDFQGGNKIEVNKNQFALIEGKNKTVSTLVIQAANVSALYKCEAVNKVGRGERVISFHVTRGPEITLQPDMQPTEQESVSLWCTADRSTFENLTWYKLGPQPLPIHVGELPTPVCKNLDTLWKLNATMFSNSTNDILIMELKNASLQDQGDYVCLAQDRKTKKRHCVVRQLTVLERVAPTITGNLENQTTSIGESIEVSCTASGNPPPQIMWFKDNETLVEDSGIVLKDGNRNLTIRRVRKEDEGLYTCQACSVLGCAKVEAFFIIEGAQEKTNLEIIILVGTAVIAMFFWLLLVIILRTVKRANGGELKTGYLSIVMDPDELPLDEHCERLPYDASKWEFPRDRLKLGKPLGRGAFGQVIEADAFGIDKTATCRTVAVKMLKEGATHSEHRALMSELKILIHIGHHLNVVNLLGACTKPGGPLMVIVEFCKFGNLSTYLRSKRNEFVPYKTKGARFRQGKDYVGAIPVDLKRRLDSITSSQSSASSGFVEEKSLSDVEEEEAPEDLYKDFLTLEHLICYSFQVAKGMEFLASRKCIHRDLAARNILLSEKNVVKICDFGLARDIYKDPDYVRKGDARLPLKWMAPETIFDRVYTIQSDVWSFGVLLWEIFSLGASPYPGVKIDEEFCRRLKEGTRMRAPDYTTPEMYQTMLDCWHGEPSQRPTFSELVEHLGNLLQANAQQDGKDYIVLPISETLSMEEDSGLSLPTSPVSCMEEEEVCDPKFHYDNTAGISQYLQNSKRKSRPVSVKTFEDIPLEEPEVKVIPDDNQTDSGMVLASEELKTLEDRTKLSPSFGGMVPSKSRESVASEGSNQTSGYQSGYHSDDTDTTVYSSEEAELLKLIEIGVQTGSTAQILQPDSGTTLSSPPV

For the compound `C[C@@H](Oc1ccc2[nH]nc(-c3nc4c([nH]3)CN(C3CCN(C)C3)C4)c2c1)c1c(Cl)cncc1Cl` (stereo partly drawn) [Compound 36, 5-((R)-1-(3,5-Dichloropyridin-4-yl)ethoxy)-3-(5-(1-methylpyrrolidin-3-yl)-1,4,5,6-tetrahydropyrrolo[3,4-d]imidazol-2-yl)-1H-indazole], the IC50 in assay [1] came to 27.5 nM; in assay [2], 1.9 nM; in assay [3], 0.31 nM; in assay [4], 0.61 nM.
Consider `CC(C1CCN(C)CC1)N1Cc2nc(-c3n[nH]c4ccc(O[C@H](C)c5c(Cl)cncc5Cl)cc34)[nH]c2C1` (stereo partly drawn) [Compound 37, 5-((R)-1-(3,5-Dichloropyridin-4-yl)ethoxy)-3-(5-(1-(1-methylpiperidin-4-yl)ethyl)-1,4,5,6-tetrahydropyrrolo[3,4-d]imidazol-2-yl)-1H-indazole], for which the IC50 in assay [1] worked out at 49.3 nM; in assay [2], 3.9 nM; in assay [3], 0.58 nM; in assay [4], 0.68 nM.
In the same order, the values of `C[C@@H](Oc1ccc2[nH]nc(-c3nc4c([nH]3)CN(C3CCCN(C)C3)C4)c2c1)c1c(Cl)cncc1Cl` (stereo partly drawn) [Compound 38, 5-((R)-1-(3,5-Dichloropyridin-4-yl)ethoxy)-3-(5-(1-methylpiperidin-3-yl)-1,4,5,6-tetrahydropyrrolo[3,4-d]imidazol-2-yl)-1H-indazole] are 15.7 nM, 0.75 nM, 0.15 nM and 0.19 nM.
The matching figures for `C[C@@H](Oc1ccc2[nH]nc(-c3nc4c([nH]3)CN(C(=O)CN3CCCC3)C4)c2c1)c1c(Cl)cncc1Cl` [Compound 40, (R)-1-(2-(5-(1-(3,5-dichloropyridin-4-yl)ethoxy)-1H-indazol-3-yl)-4,6-dihydropyrrolo[3,4-d]imidazol-5(1H)-yl)-2-(pyrrolidin-1-yl)ethan-1-one]: 4.7 nM, 0.39 nM, 0.26 nM and 0.32 nM.
The matching figures for `C[C@@H](Oc1ccc2[nH]nc(-c3nc4c([nH]3)CN(C(=O)CN3CC[C@@H](O)C3)C4)c2c1)c1c(Cl)cncc1Cl` [Compound 41, 1-(2-(5-((R)-1-(3,5-Dichloropyridin-4-yl)ethoxy)-1H-indazol-3-yl)-4,6-dihydropyrrolo[3,4-d]imidazol-5(1H)-yl)-2-((R)-3-hydroxypyrrolidin-1-yl)ethan-1-one]: 2.4 nM, 0.26 nM, 0.1 nM and 0.23 nM.
Turning to `C[C@@H](Oc1ccc2[nH]nc(-c3nc4c([nH]3)CN(C(=O)CN3CC[C@H](O)C3)C4)c2c1)c1c(Cl)cncc1Cl` [Compound 42, 1-(2-(5-((R)-1-(3,5-Dichloropyridin-4-yl)ethoxy)-1H-indazol-3-yl)-4,6-dihydropyrrolo[3,4-d]imidazol-5(1H)-yl)-2-((S)-3-hydroxypyrrolidin-1-yl)ethan-1-one], the concentration for half-maximal inhibition (IC50) is 10.3 nM in assay [1], 1 nM in assay [2], 0.33 nM in assay [3] and 0.18 nM in assay [4].
In the same order, the values of `C[C@@H](Oc1ccc2[nH]nc(-c3nc4c([nH]3)CN(C(=O)CN(C)C)C4)c2c1)c1c(Cl)cncc1Cl` [Compound 43, (R)-1-(2-(5-(1-(3,5-dichloropyridin-4-yl)ethoxy)-1H-indazol-3-yl)-4,6-dihydropyrrolo[3,4-d]imidazol-5(1H)-yl)-2-(dimethylamino)ethan-1-one] are 3.3 nM, 0.26 nM, 0.35 nM and 0.13 nM.
In the same order, the values of `C[C@@H](Oc1ccc2[nH]nc(-c3nc4c([nH]3)CN(C(=O)[C@@H]3CCCN3)C4)c2c1)c1c(Cl)cncc1Cl` [Compound 44, 3-(5-(L-prolinyl)-1,4,5,6-tetrahydropyrrolo[3,4-d]imidazol-2-yl)-5-((R)-1-(3,5-dichloropyridin-4-yl)ethoxy)-1H-indazole] are 5.3 nM, 0.82 nM, 0.43 nM and 0.32 nM.
In the same order, the values of `C[C@@H](Oc1ccc2[nH]nc(-c3nc4c([nH]3)CN(C(=O)[C@@H]3CCCN3C)C4)c2c1)c1c(Cl)cncc1Cl` [Compound 45, 5-((R)-1-(3,5-dichloropyridin-4-yl)ethoxy)-3-(5-(methyl-L-prolinyl)-1,4,5,6-tetrahydropyrrolo[3,4-d]imidazol-2-yl)-1H-indazole] are 7.6 nM, 0.81 nM, 0.18 nM and 0.36 nM.
`C[C@@H](Oc1ccc2[nH]nc(-c3nc4c([nH]3)CN(C(=O)[C@@H]3CCCCN3)C4)c2c1)c1c(Cl)cncc1Cl` [Compound 46, (2-(5-((R)-1-(3,5-dichloropyridin-4-yl)ethoxy)-1H-indazol-3-yl)-4,6-dihydropyrrolo[3,4-d]imidazol-5(1H)-yl)((S)-piperidin-2-yl)ketone]: the IC50 in assay [1] turned out to be 9.9 nM; in assay [2], 0.65 nM; in assay [3] it was 0.33 nM; in assay [4], 0.29 nM.
In the same order, the values of `C[C@@H](Oc1ccc2[nH]nc(-c3nc4c([nH]3)CN(C(=O)[C@@H]3CCCCN3C)C4)c2c1)c1c(Cl)cncc1Cl` [Compound 47, (2-(5-((R)-1-(3,5-dichloropyridin-4-yl)ethoxy)-1H-indazol-3-yl)-4,6-dihydropyrrolo[3,4-d]imidazol-5(1H)-yl)((S)-1-methylpiperidin-2-yl)ketone] are 2.5 nM, 0.29 nM, 0.14 nM and 0.21 nM.
The matching figures for `C[C@@H](Oc1ccc2[nH]nc(-c3nc4c([nH]3)CN(C(=O)CN3CCCCC3)C4)c2c1)c1c(Cl)cncc1Cl` [Compound 50, (R)-1-(2-(5-(1-(3,5-dichloropyridin-4-yl)ethoxy)-1H-indazol-3-yl)-4,6-dihydropyrrolo[3,4-d]imidazol-5(1H)-yl)-2-(piperidin-1-yl)ethan-1-one]: 8.4 nM, 1.2 nM, 0.35 nM and 0.21 nM.
The matching figures for `C[C@@H](Oc1ccc2[nH]nc(-c3nc4c([nH]3)CN(C(=O)CN3CCC3)C4)c2c1)c1c(Cl)cncc1Cl` [Compound 51, (R)-2-(Azetidin-1-yl)-1-(2-(5-(1-(3,5-dichloropyridin-4-yl)ethoxy)-1H-indazol-3-yl)-4,6-dihydropyrrolo[3,4-d]imidazol-5(1H)-yl)ethan-1-one]: 14.2 nM, 0.74 nM, 0.16 nM and 0.21 nM.
With `C[C@@H](Oc1ccc2[nH]nc(-c3nc4c([nH]3)CN(C(=O)CN3CC(O)C3)C4)c2c1)c1c(Cl)cncc1Cl` [Compound 52, (R)-1-(2-(5-(1-(3,5-Dichloropyridin-4-yl)ethoxy)-1H-indazol-3-yl)-4,6-dihydropyrrolo[3,4-d]imidazol-5(1H)-yl)-2-(3-hydroxyazetidin-1-yl)ethan-1-one], the IC50 in assay [1] came to 13.6 nM; in assay [2], 0.87 nM; in assay [3] it was 0.14 nM; in assay [4] it was 0.16 nM.

Usually IC50 stands for the concentration needed to halve the response being measured.
